# Reference: US20250154198A1, “PEPTIDE INHIBITORS OF INTERLEUKIN-23 RECEPTOR” (Zealand Pharma A/S, priority 2021, published 2025)
# *1 amine or outer side, *2 acyl side, *3 side chain or, on linkers, in order; H or OH if unused. Where a SMILES comes first, the peptide text is derived from it. Bridges are numbered along the chain shown (N, C = ends). [ ]: non-standard residue; d: D form. The star is where a group is joined. Ala(quinolin-3-yl) = N[C@@H](Cc1cnc2ccccc2c1)C(=O)O; Phe(3,4-Me2) = Cc1ccc(C[C@H](N)C(=O)O)cc1C; 2Nal = N[C@@H](Cc1ccc2ccccc2c1)C(=O)O; AEF = NCCOc1ccc(C[C@H](N)C(=O)O)cc1; X24 = O=C(CCc1ccc(N[*:1])cc1)[*:2]; X1 = O=C(Cc1ccc(CN[*:1])cc1)[*:2]; 3Pal = N[C@@H](Cc1cccnc1)C(=O)O; d3Pal = N[C@H](Cc1cccnc1)C(=O)O; αMeL = CC(C)C[C@](C)(N)C(=O)O; CH2COCH2 = O=C(C[*:1])C[*:2]; αMeV = CC(C)[C@](C)(N)C(=O)O; 3Amb = NCc1cccc(C(=O)O)c1; Pyrrolidide = C1CCN(*)C1; Dab = NCC[C@H](N)C(=O)O; βAla = NCCC(=O)O
# Biological target: T1, human IL-23R (Homo sapiens, UniProt Q5VWK5)
# T1 construct: UniProtKB—Q5VWK5, amino acids 22-629; secretion signal of the plasmid (Promega N1371); expressed in transfected cells
# T1 sequence (Q5VWK5 22-629): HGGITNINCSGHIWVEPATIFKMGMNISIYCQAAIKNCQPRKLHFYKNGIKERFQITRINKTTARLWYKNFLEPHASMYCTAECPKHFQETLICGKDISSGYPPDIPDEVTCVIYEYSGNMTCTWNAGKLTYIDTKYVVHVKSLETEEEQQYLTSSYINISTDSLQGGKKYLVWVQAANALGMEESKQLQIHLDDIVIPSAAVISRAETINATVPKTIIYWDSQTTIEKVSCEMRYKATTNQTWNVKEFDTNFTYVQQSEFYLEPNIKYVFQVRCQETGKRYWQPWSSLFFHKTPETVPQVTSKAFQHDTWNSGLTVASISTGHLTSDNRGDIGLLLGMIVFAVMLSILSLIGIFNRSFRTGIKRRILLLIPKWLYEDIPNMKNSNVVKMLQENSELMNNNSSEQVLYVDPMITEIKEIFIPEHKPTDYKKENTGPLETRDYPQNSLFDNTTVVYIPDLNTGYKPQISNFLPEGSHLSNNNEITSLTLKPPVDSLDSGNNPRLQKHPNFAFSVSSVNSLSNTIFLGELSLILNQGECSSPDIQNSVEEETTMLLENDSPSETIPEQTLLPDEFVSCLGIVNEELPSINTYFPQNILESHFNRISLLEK
# Assay: Binding assay (NanoBRET displacement of fluorophore-labelled reference compound) for estimating binding affinity to human IL-23R
# Settings: not given
# Excerpt: Binding Assay for Estimating Binding Affinity of Compounds to Human IL-23R
# The compound binding affinity for IL-23R was estimated by the ability of compounds to displace a fluorophore-labelled reference compound from the human IL-23R. The assay principle relies on Bioluminescence Resonance Energy Transfer (BRET) between a fluorophore-labelled reference compound binding to the IL-23R part of a fusion protein consisting of the IL-23R fused to a Nanoluc luciferase enzyme (Nanoluc). The Nanoluc is placed in the N-terminus in close proximity to the binding domain of the ligand. Upon close proximity between the fluorophore of the fluorophore-labelled compound and the Nanoluc of the fusion protein, bioluminescence energy generated from conversion of a Nanoluc substrate, is transferred to the fluorophore resulting in an increase in BRET. In presence of an unlabelled compound, the unlabelled compound displaces the fluorophore-labelled peptide from its binding site resulting in a decrease in BRET. The concentration for which half of the fluorophore-labelled peptide is displaced by the unlabelled compound depends on the affinity of the compound for the IL-23R, and is termed the IC50 concentration. An estimated affinity (K) of the unlabelled compound for the IL-23R may be calculated using the Cheng-Prussov equation, which takes into account the concentration of the fluorophore-labelled compound used, and the affinity of the fluorophore-labelled compound for IL-23R.
# The plasmid also contained a gene to confer resistance for the antibiotic hygromycin. A cell line stably expressing the Nluc-IL23R fusion protein was generated by transfection of HEK293 cells with the expression plasmid and selected with hygromycin for 3 weeks in Growth medium consisting of DMEM w/Glutamax-I containing, 10% V/V FBS, 1% V/V P/S, 1 mM Sodium Pyruvate, and 1×NEAA, and 0.3 mg/mL hygromycin. The remaining cells were propagated and considered a stable expressing Nluc-IL23R fusion protein pool clone.
# Cells expressing the Nluc-IL23R fusion protein were expanded in Growth medium and membranes prepared by homogenization of a cell pellet from 18 T175 flasks (4° C. in subsequent steps). The cell pellet was lysed Tris 10 mM, 7.5, 1 mM EDTA and protease inhibitors (Complete, Roche) and homogenized using a 15 mL glass-dounce by 50 strokes. The homogenate was spun at spin @1500 rpm for 10 min, the supernatant transferred to SV-34 tubes and spun at 40000 g for 20 min at 4° C. to pellet the crude membranes. The supernatant was then removed, the pellet resuspended in 5 mL buffer containing 50 mM HEPES pH 7.4, 5 mM EGTA, and 5 mM MgCl2, and homogenized. Aliquots of the resuspended and homogenized membranes containing the Nluc-IL23R fusion protein were stored at −80° C. until use.
# The plate was sealed with light impermeable plate seals, and incubated on a orbital shaker 400 rpm for 2 hours at room temperature. To determine the BRET ratio, the plate seal was removed and 25 μL of the Nanoluc substrate (Promega N1572) diluted 1:500 was added to each well and incubated for 1-2 minutes on an orbital shaker at 400 rpm. […] The BRET ratio was calculated as the fluorescence from the TAMRA/nanoluc bioluminescence. The IC50 for each compound was determined by computer-aided curve fitting using a 4-parameter logistic (4PL) non-linear model.
row,SMILES,Ki [nM]
1,"CC(=O)N[C@@H](CC(=O)O)C(=O)N[C@H]1CSCC(=O)CSC[C@@H](C(=O)N[C@@H](CCC(=O)O)C(=O)N[C@@H](CC(N)=O)C(=O)NCC(N)=O)NC(=O)[C@](C)(CC(C)C)NC(=O)[C@H](Cc2c[nH]c3ccccc23)NC(=O)[C@H](Cc2c[nH]c3ccccc23)NC(=O)[C@@H]2CSCC(=O)CSC[C@H](NC(=O)[C@H](CCC(N)=O)NC1=O)C(=O)N[C@@H](Cc1c[nH]c3ccccc13)C(=O)N[C@@H](CCC(N)=O)C(=O)N2 [Compound 64, [Ac]-DC(1a)QC(2a)WQC(2a)WW[2-Me-Leu]C(1a)ENG-[NH2]] (Ac-DCQCWQCWW[αMeL]CENG-NH2; linker 2-11, 4-7 via CH2COCH2)",> 1000

# Same assay, conditions: Table 2-10b; read-out: Ki IL-23R
row,SMILES,Ki [nM]
1,"CC(C)C[C@]1(C)NC(=O)[C@H](Cc2ccc3ccccc3c2)NC(=O)[C@H](Cc2ccc(OCCN)cc2)NC(=O)[C@@H]2CSCC(=O)CSC[C@H](NC(=O)[C@H](CO)NC(=O)CCc3ccc(cc3)NC(=O)CC[C@@H](C(=O)N[C@@H](CCCNC(=N)N)C(N)=O)NC1=O)C(=O)N[C@@H](Cc1c[nH]c3ccccc13)C(=O)N[C@@H](CCC(N)=O)C(=O)N2 [Compound 51, [3-(4-Aminophenyl)propanoyl](1c)*SC(2a)WQC(2a)[Y(2-aminoethoxy)][2-Nal][2-Me-Leu]E(1c)R-[NH2]] ([X24]SCWQC[AEF][2Nal][αMeL]ER-NH2; linker 3-6 via CH2COCH2; lactam N-10)",2

# Same assay, conditions: Table 3-1; read-out: Ki hIL-23R
row,SMILES,Ki [nM]
1,"CC(C)C[C@]1(C)NC(=O)[C@H](Cc2ccc3ccccc3c2)NC(=O)[C@H](Cc2ccc(OCCN)cc2)NC(=O)[C@@H]2CSCC(=O)CSC[C@H](NC(=O)[C@H](CO)NC(=O)c3cccc(c3)CNC(=O)CC[C@@H](C(=O)N[C@@H](CCCNC(=N)N)C(=O)N[C@H](Cc3cccnc3)C(N)=O)NC1=O)C(=O)N[C@@H](Cc1c[nH]c3ccccc13)C(=O)N[C@@H](CCC(N)=O)C(=O)N2 [Compound 150, [(3-Aminomethyl)benzoyl](1c)*SC(2a)WQC(2a)][Y(2-aminoethoxy)][2-Nal][2-Me-Leu]E(1c)R[{d}[3-(3-Pyridyl)-Ala]]-[NH2]] ([3Amb]SCWQC[AEF][2Nal][αMeL]ER[d3Pal]-NH2; linker 3-6 via CH2COCH2; lactam N-10)",0.597
2,"CC(C)C[C@]1(C)NC(=O)[C@H](Cc2ccc3ccccc3c2)NC(=O)[C@H](Cc2ccc(OCCN)cc2)NC(=O)[C@@H]2CSCC(=O)CSC[C@H](NC(=O)[C@H](CO)NC(=O)Cc3ccc(cc3)CNC(=O)CC[C@@H](C(=O)NCCC(N)=O)NC1=O)C(=O)N[C@@H](Cc1c[nH]c3ccccc13)C(=O)N[C@@H](CCC(N)=O)C(=O)N2 [Compound 119, [4-Aminomethyl-phenylacetyl](1c)*SC(2a)WQC(2a)[Y(2-aminoethoxy)][2-Nal][2-Me-Leu]E(1c)[3-Aminopropanoyl]-[NH2]] ([X1]SCWQC[AEF][2Nal][αMeL]E[βAla]-NH2; linker 3-6 via CH2COCH2; lactam N-10)",0.303
3,"CC(=O)N[C@H]1CCCCNC(=O)CC[C@@H](C(=O)N[C@H](CCCNC(=N)N)C(N)=O)NC(=O)[C@](C)(CC(C)C)NC(=O)[C@H](Cc2ccc3ccccc3c2)NC(=O)[C@H](Cc2ccc(OCCN)cc2)NC(=O)[C@@H]2CSCC(=O)CSC[C@H](NC(=O)[C@H](CO)NC1=O)C(=O)N[C@@H](Cc1c[nH]c3ccccc13)C(=O)N[C@@H](CCC(N)=O)C(=O)N2 [Compound 84, [Ac]-K(1c)SC(2a)WQC(2a)[Y(2-aminoethoxy)][2-Nal][2-Me-Leu]E(1c)[{d}R]-[NH2]] (Ac-KSCWQC[AEF][2Nal][αMeL]E[dR]-NH2; lactam 1-10; linker 3-6 via CH2COCH2)",0.922
4,"CC[C@H](C)[C@@H]1NC(=O)Cc2ccc(cc2)CNC(=O)CC[C@@H](C(=O)NCC(=O)N[C@@H](Cc2cccnc2)C(N)=O)NC(=O)[C@](C)(C(C)C)NC(=O)[C@H](Cc2ccc(C)c(C)c2)NC(=O)[C@H](Cc2ccc(OCCN)cc2)NC(=O)[C@@H]2CCNC(=O)CC[C@H](NC1=O)C(=O)N[C@@H](Cc1c[nH]c3ccccc13)C(=O)N[C@@H](CCC(N)=O)C(=O)N2 [Compound 158, [4-Aminomethyl-phenylacetyl](1c)*IE(2c)WQ[Dab](2c)[Y(2-aminoethoxy)][F(3,4-Me)][2-Me-Val]E(1c)G[3-(3-Pyridyl)-Ala]-[NH2]] ([X1]IEWQ[Dab][AEF][Phe(3,4-Me2)][αMeV]EG[3Pal]-NH2; lactam 3-6, N-10)",0.0272
5,"CC(C)C[C@]1(C)NC(=O)[C@H](Cc2ccc3ccccc3c2)NC(=O)[C@H](Cc2ccc(OCCN)cc2)NC(=O)[C@@H]2CSCC(=O)CSC[C@H](NC(=O)[C@H](CO)NC(=O)c3cccc(c3)CNC(=O)CC[C@@H](C(=O)N[C@@H](CCCNC(=N)N)C(=O)N[C@@H](Cc3cnc4ccccc4c3)C(N)=O)NC1=O)C(=O)N[C@@H](Cc1c[nH]c3ccccc13)C(=O)N[C@@H](CCC(N)=O)C(=O)N2 [Compound 149, [(3-Aminomethyl)benzoyl](1c)*SC(2a)WQC(2a)][Y(2-aminoethoxy)][2-Nal][2-Me-Leu]E(1c)R[3-(3-Quinolinyl)-Ala]-[NH2]] ([3Amb]SCWQC[AEF][2Nal][αMeL]ER[Ala(quinolin-3-yl)]-NH2; linker 3-6 via CH2COCH2; lactam N-10)",0.163
6,"CC(C)C[C@]1(C)NC(=O)[C@H](Cc2ccc3ccccc3c2)NC(=O)[C@H](Cc2ccc(OCCN)cc2)NC(=O)[C@@H]2CCNC(=O)CC[C@H](NC(=O)[C@H](CO)NC(=O)Cc3ccc(cc3)CNC(=O)CC[C@@H](C(=O)N[C@@H](CCN)C(N)=O)NC1=O)C(=O)N[C@@H](Cc1c[nH]c3ccccc13)C(=O)N[C@@H](CCC(=O)N1CCCC1)C(=O)N2 [Compound 146, [4-Aminomethyl-phenylacetyl](1c)*SE(2c)W[Q(pyrrolidin)][Dab](2c)[Y(2-aminoethoxy)][2-Nal][2-Me-Leu]E(1c)[Dab]-[NH2]] ([X1]SEWE(Pyrrolidide)[Dab][AEF][2Nal][αMeL]E[Dab]-NH2; lactam 3-6, N-10)",1.01
7,"CC(C)C[C@]1(C)NC(=O)[C@H](Cc2ccc3ccccc3c2)NC(=O)[C@H](Cc2ccc(OCCN)cc2)NC(=O)[C@@H]2CSCC(=O)CSC[C@H](NC(=O)[C@H](CO)NC(=O)c3cccc(c3)CNC(=O)CC[C@@H](C(=O)N[C@@H](CCN)C(=O)N[C@@H](Cc3cccnc3)C(N)=O)NC1=O)C(=O)N[C@@H](Cc1c[nH]c3ccccc13)C(=O)N[C@@H](CCC(N)=O)C(=O)N2 [Compound 148, [(3-Aminomethyl)benzoyl](1c)*SC(2a)WQC(2a)[Y(2-aminoethoxy)][2-Nal][2-Me-Leu]E(1c)[Dab][3-(3-Pyridyl)-Ala]-[NH2]] ([3Amb]SCWQC[AEF][2Nal][αMeL]E[Dab][3Pal]-NH2; linker 3-6 via CH2COCH2; lactam N-10)",0.00897
8,"CC(C)C[C@]1(C)NC(=O)[C@H](Cc2ccc3ccccc3c2)NC(=O)[C@H](Cc2ccc(OCCN)cc2)NC(=O)[C@@H]2CCNC(=O)CC[C@H](NC(=O)[C@H](CO)NC(=O)c3cccc(c3)CNC(=O)CC[C@@H](C(=O)N[C@@H](CCCNC(=N)N)C(N)=O)NC1=O)C(=O)N[C@@H](Cc1c[nH]c3ccccc13)C(=O)N[C@@H](CCC(N)=O)C(=O)N2 [Compound 67, [(3-Aminomethyl)benzoyl](1c)*SE(2c)WQ[Dab](2c)[Y(2-aminoethoxy)][2-Nal][2-Me-Leu]E(1c)R-[NH2]] ([3Amb]SEWQ[Dab][AEF][2Nal][αMeL]ER-NH2; lactam 3-6, N-10)",0.76
